The results in this text go back to patent US20260184707A1, “PHARMACEUTICAL COMPOUNDS FOR THE TREATMENT OF COMPLEMENT MEDIATED DISORDERS” (ALEXION PHARMACEUTICALS, INC., priority 2022, published 2026).

Each structure is given as a SMILES string.

For this assay, the target named is T1, Human complement C1s enzyme (Homo sapiens, UniProt P09871).
T1 construct: purified from human serum, Complement Technology, Inc; purchased Complement Technology, Inc; host or cells: human serum (plasma-derived native protein)
T1 sequence (P09871 438-688 limits assumed): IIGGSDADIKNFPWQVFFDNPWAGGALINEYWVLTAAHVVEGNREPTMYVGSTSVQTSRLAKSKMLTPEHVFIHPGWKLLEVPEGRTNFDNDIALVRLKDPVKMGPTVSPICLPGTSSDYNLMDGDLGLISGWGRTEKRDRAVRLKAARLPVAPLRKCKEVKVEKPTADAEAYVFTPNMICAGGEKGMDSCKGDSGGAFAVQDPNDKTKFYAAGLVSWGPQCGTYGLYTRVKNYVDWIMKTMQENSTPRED
T1 sequence (P09871 16-437 partner limits assumed): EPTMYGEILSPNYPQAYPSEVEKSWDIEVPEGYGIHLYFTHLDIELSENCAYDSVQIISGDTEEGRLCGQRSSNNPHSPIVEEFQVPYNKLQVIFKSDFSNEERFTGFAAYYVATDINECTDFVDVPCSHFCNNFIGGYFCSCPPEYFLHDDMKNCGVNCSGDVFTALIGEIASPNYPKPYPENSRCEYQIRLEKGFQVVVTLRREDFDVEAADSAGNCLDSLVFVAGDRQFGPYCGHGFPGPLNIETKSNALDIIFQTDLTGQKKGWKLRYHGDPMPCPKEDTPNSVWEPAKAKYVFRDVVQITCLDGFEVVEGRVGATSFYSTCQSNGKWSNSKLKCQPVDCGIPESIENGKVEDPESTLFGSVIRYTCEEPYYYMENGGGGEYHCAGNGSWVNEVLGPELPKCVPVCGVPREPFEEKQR
The assay can be described thus: Human C1s enzyme assay. Format: biochemical. The conditions noted are these: human complement C1s enzyme 1.16 nM, substrate Z-L-Lys-SBzl, A405; read-out: IC50 (Stars). In short, it runs like this:
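Serum-purified human C1s (1.16 nM final) preincubated 5 min at room temperature with compound in 50 mM Tris, 1 M NaCl, pH 7.5. Z-L-Lys-SBzl and DTNB added at 100 μM each; A405 recorded every 30 s. IC50 from nonlinear regression of reaction rates versus compound concentration.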

For orientation: IC50 means the concentration at which inhibition is half-maximal. `O=C(Cn1c(-c2ccccc2)ncc(NC(=O)c2ccc(-c3ccccc3F)cc2)c1=O)NCc1cc2cnccc2[nH]1` [Compound 214, N-(1-(2-(((1H-pyrrolo[3,2-c]pyridin-2-yl)methyl)amino)-2-oxoethyl)-6-oxo-2-phenyl-1,6-dihydropyrimidin-5-yl)-2′-fluoro-[1,1′-biphenyl]-4-carboxamide]: the IC50 was less than 0.1 µM. For `O=C(Cn1c(-c2ccccc2)ncc(NC(=O)c2ccc(Oc3ccccc3)s2)c1=O)NCc1cc2cnccc2[nH]1` [Compound 215, N-(1-(2-(((1H-pyrrolo[3,2-c]pyridine-2-yl)methyl)amino)-2-oxoethyl)-6-oxo-2-phenyl-1,6-dihydropyrimidin-5-yl)-5-phenoxythiophene-2-carboxamide], the IC50 was less than 0.1 µM. The figure for `O=C(Cn1c(-c2ccc(N3CCOCC3)cc2)ncc(NCc2ccc3oc4ccccc4c3c2)c1=O)NCc1cc2cnccc2[nH]1` [Compound 216, N-((1H-pyrrolo[3,2-c]pyridin-2-yl)methyl)-2-(5-((dibenzo [b,d]furan-2-ylmethyl)amino)-2-(4-morpholinophenyl)-6-oxo-pyrimidin-1(6H)-yl)acetamide] is less than 0.1 µM; for `COc1cccc(-c2ccc(C(=O)Nc3cnc(-c4ccccc4)n(CC(=O)NCc4cc5cnccc5[nH]4)c3=O)cc2F)c1` [Compound 217, N-(1-(2-(((1H-pyrrolo[3,2-c]pyridine-2-yl)methyl)amino)-2-oxoethyl)-6-oxo-2-phenyl-1,6-dihydropyrimidin-5-yl)-2-fluoro-3′-methoxy-[1,1′-biphenyl]-4-carboxamide] it is less than 0.1 µM. On to `O=C(Cn1c(-c2ccccc2)ncc(NC(=O)c2csc(-c3ccccc3)c2)c1=O)NCc1cc2cnccc2[nH]1` [Compound 218, N-(1-(2-(((1H-pyrrolo[3,2-c]pyridin-2-yl)methyl)amino)-2-oxoethyl)-6-oxo-2-phenyl-1,6-dihydropyrimidin-5-yl)-5-phen-ylthiophene-3-carboxamide], for which the IC50 was less than 0.1 µM.

Consider `O=C(Cn1c(-c2ccccc2)ncc(NC(=O)c2noc(-c3ccccc3)n2)c1=O)NCc1cc2cnccc2[nH]1` [Compound 219, N-(1-(2-(((1H-pyrrolo[3,2-c]pyridine-2-yl)methyl)amino)-2-oxoethyl)-6-oxo-2-phenyl-1,6-dihydropyrimidin-5-yl)-5-phenyl-1,2,4-oxadiazole-3-carboxamide], for which the IC50 is less than 0.1 µM. Under `O=C(Cn1c(-c2ccccc2)ncc(NC(=O)c2ccc(-c3ccccc3)s2)c1=O)Nc1nccs1` [Compound 220, N-(6-oxo-1-(2-oxo-2-(thiazol-2-ylamino)ethyl)-2-phenyl-1,6-dihydropyrimidin-5-yl)-5-phen-ylthiophene-2-carboxamide] stands less than 0.1 µM. As to `O=C(Cn1c(-c2ccccc2)ncc(NC(=O)c2n[nH]c(-c3ccccc3)n2)c1=O)NCc1cc2cnccc2[nH]1` [Compound 221, N-(1-(2-(((1H-pyrrolo[3,2-c]pyridine-2-yl)methyl)amino)-2-oxoethyl)-6-oxo-2-phenyl-1,6-dihydropyrimidin-5-yl)-5-phenyl-1H-1,2,4-triazole-3-carboxamide], the IC50 is less than 0.1 µM. Consider `O=C(Cn1c(-c2ccccc2)ncc(NC(=O)c2cccc(-c3ncco3)c2)c1=O)NCc1cc2cnccc2[nH]1` [Compound 222, N-(1-(2-(((1H-pyrrolo[3,2-c]pyridine-2-yl)methyl)amino)-2-oxoethyl)-6-oxo-2-phenyl-1,6-dihydropyrimidin-5-yl)-3-(oxazol-2-yl)benzamide], for which the IC50 was more than 1 µM.

In the case of `O=C(Cn1c(-c2ccccc2)ncc(NC(=O)c2nnc(-c3ccccc3)o2)c1=O)NCc1cc2cnccc2[nH]1` [Compound 223, N-(1-(2-(((1H-pyrrolo[3,2-c]pyridine-2-yl)methyl)amino)-2-oxoethyl)-6-oxo-2-phenyl-1,6-dihydropyrimidin-5-yl)-5-phenyl-1,3,4-oxadiazole-2-carboxamide], the 50% inhibitory concentration (IC50) is less than 0.1 µM. The figure for `O=C(Cn1c(-c2ccccc2)ncc(Nc2ccc(-c3ccccc3)cc2)c1=O)NCc1cc2cnccc2[nH]1` [Compound 224, N-((1H-pyrrolo[3,2-c]pyridin-2-yl)methyl)-2-(5-([1,1′-biphenyl]-4-ylamino)-6-oxo-2-phenylpyrimidin-1(6H)-yl)-acetamide] is 0.1 to 1 µM; for `O=C(Cn1c(-c2ccc(OCc3ccccn3)cc2)ncc(NC(=O)c2ccc(-c3ccccc3)cc2)c1=O)NCc1cc2cnccc2[nH]1` [Compound 225, N-[6-Oxo-1-[2-oxo-2-(1H-pyrrolo[3,2-c]pyridine-2-ylmethylamino)ethyl]-2-[4-(2-pyridylmethoxy)phenyl]pyrimidin-5-yl]-4-phenyl-benzamide] it is less than 0.1 µM; for `O=C(Cn1c(-c2ccc(F)c(F)c2)ncc(NC(=O)c2ccc(-c3ccccc3)cc2)c1=O)NCc1cc2cnccc2[nH]1` [Compound 226, N-(1-(2-(((1H-pyrrolo[3,2-c]pyridin-2-yl)methyl)amino)-2-oxoethyl)-2-(3,4-difluorophen-yl)-6-oxo-1,6-dihydropyrimi-din-5-yl)-[1,1′-biphenyl]-4-carboxamide] it is less than 0.1 µM. Under `O=C(Cn1c(-c2ccccc2)ncc(NC(=O)c2csc(-c3cccs3)n2)c1=O)NCc1cc2cnccc2[nH]1` [Compound 227, N-(1-(2-(((1H-pyrrolo[3,2-c]pyridin-2-yl)methyl)amino)-2-oxoethyl)-6-oxo-2-phenyl-1,6-dihydropyrimidin-5-yl)-2-(thiophen-2-yl)thiazole-4-carboxamide] stands less than 0.1 µM; under `O=C(Cn1c(-c2ccccc2)ncc(Nc2ccc(Oc3ccccc3)cc2)c1=O)NCc1cc2cnccc2[nH]1` [Compound 228, N-((1H-pyrrolo[3,2-c]pyridin-2-yl)methyl)-2-(6-oxo-5-((4-phenoxyphenyl)amino)-2-phenylpyrimidin-1(6H)-yl)-acetamide], less than 0.1 µM. The figure for `C[C@@H](Nc1cnc(-c2cccc(F)c2)n(CC(=O)NCc2cc3cnccc3[nH]2)c1=O)c1ccc2oc3ccccc3c2c1` [Compound 229, (R)-N-((1H-pyrrolo[3,2-c]pyr-idin-2-yl)methyl)-2-(5-((1-(dibenzo[b,d]furan-2-yl)ethyl)-amino)-2-(3-fluorophenyl)-6-oxopyrimidin-1(6H)-yl)acet-amide] is less than 0.1 µM; for `C[C@@H](Nc1cnc(-c2ccc(S(C)(=O)=O)cc2)n(CC(=O)NCc2cc3cnccc3[nH]2)c1=O)c1ccc2oc3ccccc3c2c1` [Compound 230, (R)-N-((1H-pyrrolo[3,2-c]pyr-idin-2-yl)methyl)-2-(5-((1-(dibenzo[b,d]furan-2-yl)ethyl)-amino)-2-(4-(methylsulfonyl)-phenyl)-6-oxopyrimidin-1(6H)-yl)acetamide] it is less than 0.1 µM. Consider `O=C(Cn1c(-c2ccccc2)ncc(NC(=O)c2coc(-c3cccnc3)n2)c1=O)NCc1cc2cnccc2[nH]1` [Compound 231, N-(1-(2-(((1H-pyrrolo[3,2-c]pyridine-2-yl)methyl)amino)-2-oxoethyl)-6-oxo-2-phenyl-1,6-dihydropyrimidin-5-yl)-2-(pyridine-3-yl)oxazole-4-carboxamide], for which the IC50 is less than 0.1 µM. Under `O=C(Cn1c(-c2ccco2)ncc(NCc2ccc3oc4ccccc4c3c2)c1=O)NCc1cc2cnccc2[nH]1` [Compound 232, N-((1H-pyrrolo[3,2-c]pyridin-2-yl)methyl)-2-(5-((dibenzo [b,d]furan-2-ylmethyl)amino)-2-(furan-2-yl)-6-oxopyrimidin-1(6H)-yl)acetamide] stands less than 0.1 µM; under `O=C(Cn1c(-c2ccccc2)ncc(NCc2coc(-c3ccccc3)n2)c1=O)NCc1cc2cnccc2[nH]1` [Compound 233, N-((1H-pyrrolo[3,2-c]pyridin-2-yl)methyl)-2-(6-oxo-2-phen-yl-5-(((2-phenyloxazol-4-yl)-methyl)amino)pyrimidin-1(6H)-yl)acetamide], less than 0.1 µM; under `O=C(Cn1c(-c2ccccc2)ncc(Nc2ccc3oc4ccccc4c3c2)c1=O)NCc1cc2cnccc2[nH]1` [Compound 234, N-((1H-pyrrolo[3,2-c]pyridin-2-yl)methyl)-2-(5-(dibenzo [b,d]furan-2-ylamino)-6-oxo-2-phenylpyrimidin-1(6H)-yl)-acetamide], less than 0.1 µM.

Regarding `O=C(Cn1c(-c2ccccc2)ncc(NC(=O)c2ccc(-c3ccccc3)s2)c1=O)Nc1nc2cnccc2s1` [Compound 235, N-(6-ox0-1-(2-oxo-2-(thiazolo [4,5-c]pyridin-2-ylamino)-ethyl)-2-phenyl-1,6-dihydro-pyrimidin-5-yl)-5-phenylthio-phene-2-carboxamide], the IC50 is more than 1 µM. With `O=C(Cn1c(-c2ccccc2)ncc(Nc2cccc(-c3ccc(F)cc3)c2)c1=O)NCc1cc2cnccc2[nH]1` [Compound 236, N-((1H-pyrrolo[3,2-c]pyridin-2-yl)methyl)-2-(5-((4′-fluoro-[1,1′-biphenyl]-3-yl)amino)-6-oxo-2-phenylpyrimidin-1(6H)-yl)acetamide], the concentration for half-maximal inhibition (IC50) is less than 0.1 µM.
